Test results published in patent US20260217677A1, “ORGANIC COMPOUNDS AS NLRP3 INHIBITORS” (KODIAK SCIENCES, INC., priority 2023, published 2026).
Read-outs that look alike come from different tables or passages of the source.

Tested on: IL-1β release in U937 cells after NLRP3 activation
Assay: IL-1β release inhibition in U937 cells (MSD V-Plex)
Conditions: PMA-differentiated U937 cells, 1 μg/mL LPS 3 h, compound 30 min, 10 mM nigericin 1 h
[1] = Homo sapiens, U-937, read-out: IL-1β IC50, Table 3
[2] = Homo sapiens, U-937, read-out: IL-1β IC50, Table 4

Row | IC50 [1] | IC50 [2] | SMILES | also measured
1 | – | 5 to 50 nM | Cc1cc(N[C@@H]2CCCN(C[C@@H]3CCCN3)C2)nnc1-c1ccc(C(F)(F)F)cc1O [Example 106, 2-(4-Methyl-6-(((R)-1-(((S)-pyrrolidin-2-yl)methyl)piperidin-3-yl)amino)pyridazin-3-yl)-5-(trifluoromethyl)phenol] | –
2 | – | 5 to 50 nM | Oc1cc(C(F)(F)F)ccc1-c1nnc(N[C@@H]2CCCN(C3CCNCC3)C2)c2c1COC2 [Example 100, (R)-2-(4-([1,4′-Bipiperidin]-3-ylamino)-5,7-dihydrofuro[3,4-d]pyridazin-1-yl)-5-(trifluoromethyl)phenol] | –
3 | – | > 500 nM | Cc1cc(N[C@@H]2CCCN(CC(=O)NC3CNC3)C2)nnc1-c1ccc(C(F)(F)F)cc1O [Example 94, (R)—N-(Azetidin-3-yl)-2-(3-((6-(2-hydroxy-4-(trifluoromethyl)phenyl)-5-methylpyridazin-3-yl)amino)piperidin-1-yl)acetamide] | –
4 | – | 5 to 50 nM | Cc1cc(N[C@@H]2CCCN(C3CNC3)C2)nnc1-c1ccc(C(F)(F)F)cc1O [Example 84, (R)-2-(6-((1-(Azetidin-3-yl)piperidin-3-yl)amino)-4-methylpyridazin-3-yl)-5-(trifluoromethyl)phenol] | –
5 | – | < 5 nM | Cc1cc(N[C@@H]2CCCN(C3CNC3)C2)nnc1-c1ccc2sccc2c1O [Example 114, (R)-5-(6-((1-(azetidin-3-yl)piperidin-3-yl)amino)-4-methylpyridazin-3-yl)benzo[b]thiophen-4-ol] | –

More lines, now with the values behind:

Row | SMILES | IC50 [1] | IC50 [2] | also measured
6 | Cc1cc(N[C@@H]2CCCN(CC(=O)N(C)[C@H]3CC[C@H](O)CC3)C2)nnc1-c1ccc(C(F)(F)F)cc1O [Compound 18, 2-((R)-3-((6-(2-Hydroxy-4-(trifluoromethyl)phenyl)-5-methylpyridazin-3-yl)amino)piperidin-1-yl)-N-((1r,4R)-4-hydroxycyclohexyl)-N-methylacetamide] | – | – | IC50 (read-out: IL-1β IC50, Table 3): 5 to 50 nM
7 | O=C(CN1CCC[C@@H](Nc2nnc(-c3ccc(C(F)(F)F)cc3O)c3c2COC3)C1)N1CC(O)C1 [Compound 22, (R)-2-(3-((4-(2-Hydroxy-4-(trifluoromethyl)phenyl)-5,7-dihydrofuro[3,4-d]pyridazin-1-yl)amino)piperidin-1-yl)-1-(3-hydroxyazetidin-1-yl)ethan-1-one] | 5 to 50 nM | – | –
8 | Cc1c(N[C@@H]2CCCN(CCOC(=O)N3CCC(O)CC3)C2)nnc(-c2ccc(C(F)(F)F)cc2O)c1C [Example 75, (R)-2-(3-((6-(2-Hydroxy-4-(trifluoromethyl)phenyl)-4,5-dimethylpyridazin-3-yl)amino)piperidin-1-yl)ethyl 4-hydroxypiperidine-1-carboxylate] | < 5 nM | – | –
9 | Cc1cc(N[C@@H]2CCCN(CC(=O)N3CC(C)(CO)C3)C2)nnc1-c1ccc(C(F)(F)F)cc1O [Example 48, (R)-2-(3-((6-(2-Hydroxy-4-(trifluoromethyl)phenyl)-5-methylpyridazin-3-yl)amino)piperidin-1-yl)-1-(3-(hydroxymethyl)-3-methylazetidin-1-yl)ethan-1-one] | 5 to 50 nM | – | –
10 | Cc1cc(N[C@@H]2CCCN(CCN3CCC(O)CC3)C2)nnc1-c1ccc(C(F)(F)F)cc1O [Compound 7, (R)-1-(2-(3-((6-(2-Hydroxy-4-(trifluoromethyl)phenyl)-5-methylpyridazin-3-yl)amino)piperidin-1-yl)ethyl)piperidin-4-ol] | 5 to 50 nM | – | –
11 | Cc1cc(N[C@@H]2CCCN(C(=O)C3CCCC(O)C3)C2)nnc1-c1ccc(C(F)(F)F)cc1O (single isomer, unassigned) [Example 70 Fraction A] | 5 to 50 nM | – | –
12 | Cc1cc(-c2ccc(C(F)(F)F)cc2O)nnc1N[C@@H]1CCCN(CC(=O)N2CC[C@@H](O)C2)C1 [Example 32, 2-((R)-3-((6-(2-Hydroxy-4-(trifluoromethyl)phenyl)-4-methylpyridazin-3-yl)amino)piperidin-1-yl)-1-((R)-3-hydroxypyrrolidin-1-yl)ethan-1-one] | 5 to 50 nM | – | –
